Test results taken from article PMC6548335 (ACS infectious diseases, 2019).
Entries after “also recorded” stand apart in the source; their conditions may differ.

What was measured:
[1] = Hepatic microsomal stability; type: in vitro ADME; settings: mouse, liver microsomes, pH 7.4
BHK-21 cells = test: Cytotoxicity assay; type: cell-based, baby hamster; settings: for CC5: 50% loss of BHK-21 cell viability; for CC50 relative to antiviral IC90: BHK-21 CC50 vs DENV2 IC90
DENV2 NGC = test: microbe, parasite or virus in culture; type: cell-based, dengue virus 2 (BHK-21 cells); settings: Dengue virus, DENV2, BHK-21, read-out: IC90 (μM) [DENV2 NGC)
[2] = test system: malate dehydrogenase (MDH); test: Malate dehydrogenase; type: biochemical; settings: presence and absence of Triton X-100
[3] = target: soluble, prefusion DENV2 envelope protein (sE2) (Dengue virus type 2, UniProt P14340); test: Biolayer interferometry binding to sE2; set-up: species or system dengue virus 2
DENV2 S221 [4] = test: Multi-cycle infection, DENV2 S221; settings: 5 μM, MOI 0.01, supernatants at 48 and 72 hours post-infection
Plasma-protein binding = type: in vitro ADME
[5] = test system: E-mediated membrane fusion of DENV2, strain NGC; settings: 0, 10, 50 μM compound, pH 5.3, Western blot
DENV2 S221 [6] = test: Viral infectivity assay, mouse-adapted DENV2 S221; settings: Dengue virus, DENV2, BHK-21, read-out: antiviral IC90, DENV2 S221
[7] = Pharmacokinetic study in mice; settings: female, C57BL/6, mouse, intraperitoneal, 20 mg/kg

| Structure (SMILES) | half-life at 1 μM [1] | IC90 (DENV2 NGC) | detergent-sensitive (non-specific) inhibition of MDH [2] | also measured |
| --- | --- | --- | --- | --- |
| CN1CCN(c2cc(N/N=C(\C#N)C(=O)c3cc4ccccc4o3)cc(C(F)(F)F)c2)CC1 [JBJ-01-162-02, (E)-2-(benzofuran-2-yl)-N-(3-(4-methylpiperazin-1-yl)-5-(trifluoromethyl)phenyl)-2-oxoacetohydrazonoyl cyanide] | 73 min | 9 ± 2.8 µM | detergent-sensitive inhibition of malate dehydrogenase comparable to that of 3-110-22 | CC5 (BHK-21 cells): 24.5 ± 7.2 µM |
| N#C/C(=N\Nc1ccc(N2CCOCC2)c(C(F)(F)F)c1)C(=O)c1cc2ccccc2o1 [JBJ-01-162-03, (E)-2-(benzofuran-2-yl)-N-(4-morpholino-3-(trifluoromethyl)phenyl)-2-oxoacetohydrazonoyl cyanide] | > 120 min | 1.6 ± 0.7 µM | detergent-sensitive inhibition of malate dehydrogenase comparable to that of 3-110-22 | CC5 (BHK-21 cells): 32.5 ± 2.2 µM; CC50 relative to antiviral IC90 (BHK-21 cells): ≥ 20 fold |
| N#C/C(=N\Nc1ccc(F)c(C(F)(F)F)c1)C(=O)c1cc2ccccc2o1 [JBJ-03-019-01, (E)-2-(benzofuran-2-yl)-N-(4-fluoro-3-(trifluoromethyl)phenyl)-2-oxoacetohydrazonoyl cyanide] | 7.6 min | – | – | – |
| CCN1CCN(Cc2ccc(N/N=C(\C#N)C(=O)c3cc4ccccc4o3)cc2C(F)(F)F)CC1 [JBJ-01-162-05, (E)-2-(benzofuran-2-yl)-N-(4-((4-ethylpiperazin-1-yl)methyl)-3-(trifluoromethyl)phenyl)-2-oxoacetohydrazonoyl cyanide] | 29.9 min | – | – | – |
| Cc1cn(-c2cc(N/N=C(\C#N)C(=O)c3cc4ccccc4o3)cc(C(F)(F)F)c2)cn1 [JBJ-01-162-04, (E)-2-(benzofuran-2-yl)-N-(3-(4-methyl-1H-imidazol-1-yl)-5-(trifluoromethyl)phenyl)-2-oxoacetohydrazonoyl cyanide] | 64.8 min | 1.5 ± 0.4 µM | lacks this non-specific activity; also recorded: Slight inhibition of MDH | CC50 relative to antiviral IC90 (BHK-21 cells): ≥ 20 fold; Kd [3]: 1.4 ± 0.5 µM; reduction of viral yield in multi-cycle infection (DENV2 S221 [4]): over 95%; fraction unbound (Plasma-protein binding): < 0.001; inhibition of E-mediated fusion (protection of core from trypsin digestion), DENV2 [5]: inhibits E-mediated fusion of DENV2 in a concentration-dependent manner; also recorded: inhibits viral fusion in the liposome-based assay in a concentration-dependent manner; IC90 (DENV2 S221 [6]): 1.4 ± 0.6 µM; concentration at 4 h ([7]; liver): 37.2 µM; concentration at 12 h ([7]; liver): 13 µM; concentration at 4 h ([7]; plasma): 75.8 µM; concentration at 12 h ([7]; plasma): 2.9 µM |
| N#C/C(=N\Nc1cc(F)cc(C(F)(F)F)c1)C(=O)c1cc2ccccc2o1 [JBJ-03-019-02, (E)-2-(benzofuran-2-yl)-N-(3-fluoro-5-(trifluoromethyl)phenyl)-2-oxoacetohydrazonoyl cyanide] | 8.6 min | – | – | – |
| CN1CCN(c2ccc(N/N=C(\C#N)C(=O)c3cc4ccccc4o3)cc2C(F)(F)F)CC1 [JBJ-01-162-01, (E)-2-(benzofuran-2-yl)-N-(4-(4-methylpiperazin-1-yl)-3-(trifluoromethyl)phenyl)-2-oxoacetohydrazonoyl cyanide] | 35.1 min | – | – | – |
